Laboratory results reported in US8093234B2, “Method of increasing thymic output in HIV-negative patients by treatment with antiretroviral agents” (Mayo Foundation For Medical Education and Research, priority 2005, dated 2012).
Values joined by “and” are separate entries in the source; they are usually repeats but may differ in a detail not shown here. Identical values can stand only once. “Also recorded” adds a separate entry of the source.

Tests used:
Kaposi's sarcoma = conditions: mice implanted with Kaposi's sarcoma; cited from earlier work
[1] = tested on: adult T-cell leukemia cells; conditions: NOD/SCID mice implanted with adult T-cell leukemia cells; cited from earlier work
[2] = tested on: thymic derived naïve T-cell numbers in the peripheral blood; test: TREC analysis (sjTREC/CCR5 real-time PCR) of peripheral blood in HIV-negative volunteers on nelfinavir mono-therapy; type: in vivo, human
Experimental: (§1) Following approval by the Mayo Institutional Review Board, peripheral blood was sampled from 46 healthy blood donors older than 18 years of age for baseline TREC analysis. For the separate nelfinavir trial, 15 HIV-negative individuals with no active illness older than 18 years of age were given nelfinavir, 1250 mg orally, twice a day for 21 days. Blood for TREC analysis was obtained before therapy and on days 3, 5, 7, 14, and 21 after starting therapy. At each blood draw, side-effects were monitored and recorded from each subject. Severity of diarrhea was graded as: Grade 0—None; Grade 1—increase of 4 stools/day over pretreatment; Grade 2—increase of 4-6 stools/day, or nocturnal stools; Grade 3—increase of 7 stools/day or incontinence, or dehydration episode requiring parenteral support; Grade 4—episode of hemodynamic collapse requiring intensive care.
TREC Analysis: DNA was isolated from peripheral blood mononuclear cells (PBMC) using an QIAamp Blood Mini DNA Kit (Qiagen) and assessed for signal joint (sj) TREC content relative to genomic CCR5 copies by real-time PCR in a spectroflourometric thermal cycler (ABI PRISM 7700 or 7900, PE Applied Biosystems). SjTREC reactions contained 12.5 pmol primers (forward […] [SEQ ID NO:1]), reverse […] [SEQ ID NO:2]) 3 pmoles TAQMAN probe (FAM-[…]-TAMRA [SEQ ID NO:3]), 1× TAQMAN Universal PCR Master Mix (PE Applied Biosystems), and 50 to 400 ng of template DNA in a total volume of 25 μl. CCR5 reactions contained 12.5 pmol primers (forward […] [SEQ ID NO:4], and reverse […] [SEQ ID NO:5]), 3 pmoles TAQMAN probe (FAM-[…]-TAMRA [SEQ ID NO:6]),1× TAQMAN Universal PCR Master Mix, and 50-400 ng of template of genomic DNA in a total volume of 25 μl. Thermal cycling conditions consisted of a 2-minute incubation at 50° C. and an initial denaturation/activation step at 95° C. for 10 minutes, followed by 40 cycles of 95° C. for 15 seconds and 60° C. for 1 minute in a microplate format. For each plate of reactions, standard curves were generated with 1-100,000 copies of human sjTREC plasmid (provided by Dr. D. Douek, NIH) and human CCR5 plasmid (cloned by RT-PCR into pCI) in order to calculate copies of TREC versus CCR5.
Statistical analysis: Experiments from every figure were performed in duplicate and repeated at least twice. All measurements are presented as means and standard deviations with statistical comparisons made between baseline and day 21 TREC/CCR5 measurements using the Student's t test for paired observations. For FIG. 2, change in baseline to day 21 TREC/CCR5 levels were stratified according to subjects age with 2 subjects <40, 2 subjects 40-65, and 11 subjects >65 years old.

[3] = Side-effect monitoring in the nelfinavir trial in HIV-negative individuals; type: in vivo, human
Experimental: as §1

In the case of `CC(C)c1nc(CN(C)C(=O)N[C@H](C(=O)N[C@@H](Cc2ccccc2)C[C@H](O)[C@H](Cc2ccccc2)NC(=O)OCc2cncs2)C(C)C)cs1` [Ritonavir], the tumor response (Kaposi's sarcoma) is listed as “significant tumor regression” and the tumor growth [1] is listed as “reduced tumor growth”.
With `Cc1c(O)cccc1C(=O)N[C@@H](CSc1ccccc1)[C@H](O)CN1C[C@H]2CCCC[C@H]2C[C@H]1C(=O)NC(C)(C)C` [nelfinavir] the “volunteers who did not increase TREC numbers following 21 days” value ([2]; 15 subjects, 21 days) was 47 % of total, the “volunteers who responded with increases in TREC numbers from baseline to day 21” value ([2]; 15 subjects, 21 days) was 53 % of total and the “effect on TREC levels / TREC positive naïve T-cell number” value ([2]; HIV-negative adults, mono-therapy for 21 days) was “induces an increase in TREC levels in a subset of healthy adults; also recorded: increases TREC positive naïve T-cell number”. For the same compound, the “median increase in TRECs from baseline to day 21 in responders” value ([2]; eight responding volunteers, p<0.02) was 1.2 copies TREC/CCR5, the “change between baseline and day 21 TREC/CCR5 levels” value ([2]; entire cohort analyzed) was “no change” and the “Day 21/0 TREC” value ([2]; individual subjects 1-15, nelfinavir 1250 mg orally twice a day for 21 days) was 0.74 and 1.18 and 0.24 and 1.25 and 1.01 and 0.72 and 1.0 and 1.36 and 1.06 and 2.32 and 1.88 and 0.59 and 0.29 and 0.38 and 0.55. For the same compound, the “patients in whom TREC copies/copies CCR5 increased” value ([2]; of 15 subjects, p<0.02) was 8 patients, the “patients in whom TREC copies/copies CCR5 did not change” value ([2]; of 15 subjects, p=NS) was 7 patients and the “change in TREC levels between baseline (day 0) and days 3, 5, 7 or 14” value ([2]; paired analysis) was “No significant change”. For the same compound, the “average increase in TREC levels” value ([2]; subjects 40-65 years) was 0.80 TREC/CCR5 copies, the “average change in TREC levels” value ([2]; subjects greater than 65 years) was 0.89 TREC/CCR5 copies and the “average increase in TREC levels” value ([2]; subjects less than 40 years) was 1.2 TREC/CCR5 copies. The clinical tolerability ([3]; 1250 mg orally twice a day for 21 days) was “clinically well tolerated”, the “subjects who completed the 21 days of therapy” value ([3]; 15 subjects) was “all but one subject” and the “subjects who experienced Grade 1 or 2 diarrhea” value ([3]; six of 15 subjects) was 40%.
